SMILES strings stand for the structures. Bounds are passed on as bounds.

The target in this assay is T1, Caspase-3 (Homo sapiens, UniProt P42574).
T1 sequence (P42574 whole entry): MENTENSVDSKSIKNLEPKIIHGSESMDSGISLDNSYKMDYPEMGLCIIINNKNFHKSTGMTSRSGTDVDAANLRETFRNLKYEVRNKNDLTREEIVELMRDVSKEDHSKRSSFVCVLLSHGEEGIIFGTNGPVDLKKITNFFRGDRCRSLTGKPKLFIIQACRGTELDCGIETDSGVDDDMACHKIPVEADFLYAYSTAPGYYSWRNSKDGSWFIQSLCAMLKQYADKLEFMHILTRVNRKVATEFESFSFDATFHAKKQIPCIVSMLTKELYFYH
The assay can be described thus: In vitro inhibitory concentration measured against caspase-3.

The IC50 is the concentration at which inhibition is half-maximal. A low value points to greater potency. With `Cc1nc2ccccc2c2c1C(=O)NC2=O`, the concentration for half-maximal inhibition (IC50) is > 100 µM.

As to `Cc1nc2ccccc2c2c1C(=O)N(C)C2=O`, 6.36 µM corresponded to half-maximal inhibition (IC50).

The record behind these values is ChEMBL document CHEMBL1141915, “1,3-Dioxo-4-methyl-2,3-dihydro-1H-pyrrolo[3,4-c]quinolines as potent caspase-3 inhibitors” (Bioorg Med Chem Lett, 2005).
